Earlier results in PMC11101992 (Clinical and Translational Science, 2024).
Blank lines part the entries; values can stand above or below the molecule they belong to.

Compound: CN1CCC[C@]1(C)/C=C/S(=O)(=O)NC(=O)Nc1c2c(cc3c1CCC3)CCC2 [ZYIL1]
drug‐related skin reactions (in words) (early clinical trials): did not yet report any drug‐related skin reactions | IL‐1β release inhibition (IL‐1β release; healthy subjects): > 90%

healthy subjects with rash (900 mg): 22%
Compound: CN[C@@H]1COc2c(S(=O)(=O)NC(=O)Nc3c4c(cc5c3CCC5)CCC4)cnn2C1 [GDC‐2394]

Compound: CS(=O)(=O)CCC#N [dapansutrile]
IL‐1β release reduction (in words) (IL‐1β release; healthy subjects and patients with gout flare): only partially reduced
